Measurements taken from paper PMC10045483, “Comparative Pharmacokinetic Study of 5 Active Ingredients after Oral Administration of Zuogui Pill in Osteoporotic Rats with Different Syndrome Types” (International Journal of Analytical Chemistry, 2023).
Like-named read-outs stand apart in the source and are kept apart here.

Experiments:
[1] = Pharmacokinetic study of 5 compounds in rat plasma after oral administration of Zuogui Pill extract (HPLC-MS/MS, noncompartmental analysis); assay type: in vivo, Female Sprague-Dawley rats; settings: oral Zuogui Pill extract 1.5 mL/100 g; for Cmax / Tmax / half-life / CL/F / MRT last / MRT inf: female, Sprague-Dawley, rat, po, 1.5 mL/100 g; for Cmax / Tmax / half-life / AUC0–t / AUC0–∞: n = 6; for CL/F: n = 6, read-out: CL_F_obs (converted); for MRT last: n = 6, read-out: MRT0–t; for MRT inf: n = 6, read-out: MRT0–∞
Experimental: Female Sprague-Dawley rats (180–220 g) were purchased from Shanghai Laboratory Animal Centre (Shanghai, China). The rats were maintained in a standard environment (22 ± 1°C, 60 ± 10% relative humidity, and a 12 h light/dark cycle) for one week to acclimate and fed water and food ad libitum. Twenty-four rats were divided randomly into […] and treated through ovary enucleation to establish the model of osteoporosis. Ten weeks after operation, osteoporosis models of kidney-yang-deficiency and kidney-yin-deficiency were established by intramuscular injection of hydrocortisone (25 mg/kg) and intragastric administration of thyroxine suspension (160 mg/kg) for 10 days, respectively. The femur of two rats from each group was then stained with hematoxylin and eosin (H&E) to assess histopathological change. Also, the validation of osteoporosis kidney-yang-deficiency and kidney-yin-deficiency models was judged by detecting the level of cyclic adenosine monophosphate (cAMP) and cyclic guanosine monophosphate (cGMP) in rat plasma. Laboratory Animal Management and Ethics Committee of Zhejiang Chinese Medical University approved all animal treatments (ZSLL-2014-48).
One hundred microliters of plasma was mixed with 100 μL of the IS solution, followed by 700 μL of methanol:acetonitrile (1 : 1). After 2 min of vortex mixing, the mixture was spun for 15 min at 8000 rpm and 4°C. The supernatants were collected and dried in a high-purity N2 environment. The residues were redissolved in 100 μL methanol and centrifuged for 15 min at 13000 rpm and 4°C. Finally, an aliquot of 10 μL supernatants was used to conduct the analysis.
Four groups of rats were orally administered with Zuogui Pill extract at a dose of 1.5 mL/100 g. Then, 0.3 mL blood samples were collected from orbital veins at 0, 0.08, 0.17, 0.25, 0.5, 1, 2, 4, 6, 8, 12, and 24 h after administration, placed in an anticoagulant tube, and centrifuged for 15 min at 5000 rpm and 4°C. The plasma was prepared and stored at −20°C until analysis.
Phoenix WinNonlin 6.4 software was used to estimate pharmacokinetic parameters using noncompartmental analysis. Furthermore, SPSS 26 software was used to compute comparisons of the pharmacokinetic data among the four groups according to a one-way ANOVA. The results are presented as mean ± SD.

[2] = Stability of analytes in rat plasma (QC samples) under storage conditions; settings: n = 5; for Stability, Room temperature for 4 h, Mean: 25°C; for Stability, Three freeze-thaw cycles, Mean: −20°C to 25°C
Experimental: QC samples at three levels using five replicates were used to evaluate the stability under the following conditions: 4 h at room temperature (25°C), 24 h in autosampler (4°C), and three freeze-thaw cycles (−20°C to 25°C).

[3] = osteoporosis rats (ovariectomized)
[4] = osteoporotic rats with kidney-yang-deficiency
[5] = osteoporotic rats with kidney-yin-deficiency
[6] = high QC (800, 16000, 3200, 400, 40 ng/mL in the same order)
[7] = low QC (2, 40, 8, 1, 0.1 ng/mL for chlorogenic acid, loganin, morroniside, aucubin, protocatechuic aldehyde)
[8] = middle QC (40, 800, 160, 20, 2 ng/mL in the same order)

Q: Which Cmax ([1]; normal rats) does the source give for `O=Cc1ccc(O)c(O)c1` [Protocatechuic aldehyde, protocatechuic aldehyde] here?
A: The Cmax was 18.9 ± 3.62 ng/mL.

Q: And the Tmax ([1]; normal rats)?
A: The Tmax was 0.45 ± 0.1 h.

Q: What about the half-life ([1]; normal rats) of the same molecule?
A: Its half-life is 10.9 ± 4.48 h.

Q: What about the CL/F ([1]; normal rats) of the same molecule?
A: The CL/F was 12.5 mL/min/kg.

Q: What about the MRT last ([1]; normal rats) of the same molecule?
A: The MRT last was 5.14 ± 0.17 h.

Q: And the MRT inf ([1]; normal rats)?
A: Its MRT inf is 15.8 ± 6.12 h.

Q: What about the Cmax [1, 3] of the same molecule?
A: Its Cmax is 10.1 ± 1.99 ng/mL.

Q: And the Tmax [1, 3]?
A: Its Tmax is 0.3 h.

Q: What about the half-life [1, 3] of the same molecule?
A: Its half-life is 12 ± 4.69 h.

Q: What about the CL/F [1, 3] of the same molecule?
A: Its CL/F is 21.3 mL/min/kg.

Q: And the MRT last [1, 3]?
A: The MRT last was 5.52 ± 0.21 h.

Q: And the MRT inf [1, 3]?
A: Its MRT inf is 17.8 ± 6.26 h.

Q: And the Cmax [1, 4]?
A: The Cmax was 11.4 ± 1.31 ng/mL.

Q: And the half-life [1, 4]?
A: The half-life was 2.09 ± 0.89 h.

Q: And the CL/F [1, 4]?
A: Its CL/F is 50.5 mL/min/kg.

Q: And the MRT last [1, 4]?
A: The MRT last was 2.55 ± 0.18 h.

Q: And the MRT inf [1, 4]?
A: Its MRT inf is 3.5 ± 1.38 h.

Q: And the Cmax [1, 5]?
A: Its Cmax is 8.81 ± 1.61 ng/mL.

Q: What about the Tmax [1, 5] of the same molecule?
A: Its Tmax is 0.17 ± 0.07 h.

Q: And the half-life [1, 5]?
A: The half-life was 2.2 ± 0.83 h.

Q: And the CL/F [1, 5]?
A: The CL/F was 48.9 mL/min/kg.

Q: And the MRT last [1, 5]?
A: The MRT last was 3.24 ± 0.37 h.

Q: And the MRT inf [1, 5]?
A: The MRT inf was 3.79 ± 0.79 h.

Q: And the “AUC0–t” value ([1]; normal rats)?
A: The value was 64.15 ± 10.30^∗∗ h∗ng/mL.

Q: What about the “AUC0–∞” value ([1]; normal rats) of the same molecule?
A: The value was 119.88 ± 32.93^∗∗ h∗ng/mL.

Q: And the “AUC0–t” value [1, 3]?
A: The value was 34.92 ± 2.37 h∗ng/mL.

Q: What about the “AUC0–∞” value [1, 3] of the same molecule?
A: Its value is 72.28 ± 21.64 h∗ng/mL.

Q: What about the “AUC0–t” value [1, 4] of the same molecule?
A: Its value is 24.70 ± 1.69^∗∗ h∗ng/mL.

Q: And the “AUC0–∞” value [1, 4]?
A: Its value is 28.68 ± 6.49^∗∗ h∗ng/mL.

Q: And the “AUC0–t” value [1, 5]?
A: The value was 27.48 ± 3.10^∗∗ h∗ng/mL.

Q: And the “AUC0–∞” value [1, 5]?
A: The value was 28.87 ± 2.69^∗∗ h∗ng/mL.

Q: And the “Stability, Room temperature for 4 h, Mean” value (“Stability, Room temperature” below) [2, 6]?
A: Its value is 87.4%.

Q: What about the “Stability, Room temperature” value [2, 7] of the same molecule?
A: The value was 86.8%.

Q: What about the “Stability, Room temperature” value [2, 8] of the same molecule?
A: The value was 90.9%.

Q: What about the “Stability, Autosampler at 4°C for 24 h, Mean” value (shortened to “Stability, Autosampler at 4°C”) [2, 6] of the same molecule?
A: The value was 85.9%.

Q: And the “Stability, Autosampler at 4°C” value [2, 7]?
A: The value was 88.4%.

Q: And the “Stability, Autosampler at 4°C” value [2, 8]?
A: The value was 89.3%.

Q: And the “Stability, Three freeze-thaw cycles, Mean” value [2, 6]?
A: Its value is 89.5%.

Q: What about the “Stability, Three freeze-thaw cycles, Mean” value [2, 7] of the same molecule?
A: Its value is 90.8%.

Q: What about the “Stability, Three freeze-thaw cycles, Mean” value [2, 8] of the same molecule?
A: Its value is 83.4%.
